Assay results as given in patent US7767798B2, “Loganin analogues and a process for the preparation thereof” (priority 2005, dated 2010).
Converted amounts (≈) assume the structure as drawn. Read-outs that look alike come from different tables or passages of the source.

Tests used:
[1] = tested on: Ovary (PA-1) cancer cell line; test: MTT cytotoxicity assay, PA-1; assay type: cell-based, human; conditions: for IC50: Homo sapiens, read-out: PA-1 IC50
Protocol: (§1) Cytotoxicity testing In-vitro was done by the method of Woerdenberg et al^17. 2×10^3 cells/well were incubated in the 5% CO2, 95% atmosphere and 37° C. in CO2 incubator for 24 h to enable them to adhere properly to the 96 well polysterene microplate (Grenier, Germany). Test compounds dissolved in 100% DMSO (Merck, Germany) in at least five doses were added and left for four hour after which the compound plus media was replaced with fresh media and the cell were incubated for another 48 h in the CO2 incubator at 37° C. […] Then, 10 μL from 5 mg/ml stock of MTT [3-(4,5-dimethylthiazol-2-yl)-2,5-diphenyltetrazolium bromide; Sigma M 2128] was added, and plate were incubated at 37° C. for 4 h. 100 μL of dimethylsulfoxide (DMSO, Merck, Germany) were added to all wells and mixed thoroughly to dissolve the dark blue crystal. After a few minute at room temperature to ensure that all crystal were dissolve, the plate were read on a Spectra Max 190 Microplate Elisa Reader (Molecular Devices Inc., U.S.A), at 570 nm. Plate were normally read within 1 h of adding the DMSO. The experiment was done in triplicate and the inhibitory concentration (IC) values were calculated as; % INHIBITION=[1−OD (570 nm) of sample well/OD (570 nm) of control well]×100. IC50 is the concentration μg/mL required for 50% inhibition of cell growth as compared to that of untreated control.

[2] = tested on: Liver (WRL) cancer cell line; test: MTT cytotoxicity assay, WRL; assay type: cell-based, human; conditions: for IC50: Homo sapiens, read-out: WRL IC50
Protocol: as §1

[3] = tested on: human cancer cell lines (MCF-7, PA-1, WRL, COLO-320, CaCo2); test: MTT cytotoxicity assay, summary over the tested human cancer cell lines; conditions: for Dosage range IC50: range of IC50 over the tested cell lines (Table 1); for IC50: Homo sapiens
Protocol: as §1

[4] = tested on: Adherent colon (CaCo2) cancer cell line; test: MTT cytotoxicity assay, CaCo2; assay type: cell-based, human; conditions: for IC50: Homo sapiens
Protocol: as §1

[5] = tested on: breast (MCF-7) cancer cell line; test: MTT cytotoxicity assay, MCF-7; assay type: cell-based, human; conditions: for IC50: Homo sapiens
Protocol: as §1

[6] = tested on: Suspension Colon (COLO-320) cancer cell line; test: MTT cytotoxicity assay, COLO-320; assay type: cell-based, human; conditions: for times higher activity than vinblastine: COLO-320; for IC50: Homo sapiens
Protocol: as §1

[7] = MTT assay, PA-1 ovary cancer cells
[8] = MTT assay, WRL liver cancer cells
[9] = tested human cancer cell lines, comparison with loganin, compound 4 or a neighbouring analogue
[10] = MTT assay, CaCo2 adherent colon cancer cells
[11] = MTT assay, MCF-7 breast cancer cells
[12] = MTT assay, COLO-320 suspension colon cancer cells

Structure (SMILES) | PA-1 IC50 [1, 7] [µg/mL] | WRL IC50 [2, 8] [µg/mL] | Dosage range IC50 [3] [µg/mL] | cytotoxic activity in words [3, 9] | CaCo2 IC50 [4, 10] [µg/mL] | MCF-7 IC50 [5, 11] [µg/mL] | COLO-320 IC50 [6, 12] [µg/mL] | other results
COC(=O)C1=COC(O[C@@H]2O[C@H](COC(=O)c3cc(OC)c(OC)c(OC)c3)[C@@H](OC(C)=O)[C@H](OC(C)=O)[C@H]2OC(C)=O)C2C1CC(OC(C)=O)C2C (stereo partly drawn) [Compound 11, 2′,3′,4′,7-Tetra-O-acetyl-6′-O-3,4,5-trimethoxy benzoyl loganin] | 0.10 | 0.54 | 0.044 to 3.54 | significant enhancement in the cytotoxicity | 0.06 | 0.25 | 0.04 | times higher activity than vinblastine ([4]; CaCO2): 8 times; times higher activity than vinblastine [6]: 13 times
CC[C@]1(O)C[C@@H]2CN(CCc3c([nH]c4ccccc34)[C@@](C(=O)OC)(c3cc4c(cc3OC)N(C)[C@H]3[C@@](O)(C(=O)OC)[C@H](OC(C)=O)[C@]5(CC)C=CCN6CC[C@]43[C@@H]65)C2)C1 [Vinblastine, vinblastine, reference compound] |  |  |  |  |  |  |  | IC50 [1, 7]: 0.025 µg/mL (≈ 0.0308 µM); IC50 [2, 8]: 1.45 µg/mL (≈ 1.79 µM); IC50 ([3]; read-out: Dosage range IC50): 0.02 to 1.45 µg/mL (≈ 0.0247 to 1.79 µM); IC50 ([4]; Caco-2, MTT assay, CaCo2 adherent colon cancer cells, read-out: CaCo2 IC50): 0.46 µg/mL (≈ 0.567 µM); IC50 ([5]; MCF7, MTT assay, MCF-7 breast cancer cells, read-out: MCF-7 IC50): 0.02 µg/mL (≈ 0.0247 µM); IC50 ([6]; MTT assay, COLO-320 suspension colon cancer cells, read-out: COLO-320 IC50): 0.52 µg/mL (≈ 0.641 µM)
COC(=O)C1=CO[C@@H](O[C@@H]2O[C@H](COC(c3ccccc3)(c3ccccc3)c3ccccc3)[C@@H](O)[C@H](O)[C@H]2O)[C@@H]2[C@@H](C)[C@@H](O)C[C@H]12 [Compound 2, 6′-O-trityl loganin] | 0.65 | 1.86 | 0.25 to 2.0 |  | 0.56 | 1.00 | 0.25 | cytotoxic activity in words [3]: enhanced cytotoxic activity
CCCCCCCCCCCCCC(=O)OC[C@H]1O[C@@H](OC2OC=C(C(=O)OC)C3CC(OC(C)=O)C(C)C23)[C@H](OC(C)=O)[C@@H](OC(C)=O)[C@@H]1OC(C)=O (stereo partly drawn) [Compound 7, 2′,3′,4′,7-Tetra-O-acetyl-6′-O-myristoyl loganin] | 6.5 | 58.50 | 6.5 to 59.0 |  |  | 24.60 | 30.00 | 
COC(=O)C1=COC(O[C@@H]2O[C@H](COC(=O)c3cccc([N+](=O)[O-])c3)[C@@H](OC(C)=O)[C@H](OC(C)=O)[C@H]2OC(C)=O)C2C1CC(OC(C)=O)C2C (stereo partly drawn) [Compound 12, 2′,3′,4′,7-Tetra-O-acetyl-6′-O-(3′″)-nitrobenzoyl loganin] | 0.85 | 3.20 | 0.44 to 3.20 | slightly decreased the activity | 1.00 | 1.25 | 0.44 | 
COC(=O)C1=COC(O[C@@H]2O[C@H](COC(c3ccccc3)(c3ccccc3)c3ccccc3)[C@@H](OC(C)=O)[C@H](OC(C)=O)[C@H]2OC(C)=O)C2C1CC(OC(C)=O)C2C (stereo partly drawn) [Compound 3, 2′,3′,4′,7-tetra-O-acetyl-6′-O-trityl loganin] | 1.20 | 2.44 | 0.80 to 3.5 | enhanced cytotoxic activity | 3.45 | 1.20 | 0.82 | 
CCCCCCCCCCCC(=O)OC[C@H]1O[C@@H](OC2OC=C(C(=O)OC)C3CC(OC(C)=O)C(C)C23)[C@H](OC(C)=O)[C@@H](OC(C)=O)[C@@H]1OC(C)=O (stereo partly drawn) [Compound 6, 2′,3′,4′,7-Tetra-O-acetyl-6′-O-lauroylloganin] | 0.15 | 0.85 | 0.04 to 0.85 |  | 0.42 | 0.24 | 0.04 | times higher activity than vinblastine [6]: 13 times
COC(=O)C1=CO[C@@H](O[C@@H]2O[C@H](CO)[C@@H](O)[C@H](O)[C@H]2O)[C@@H]2[C@@H](C)[C@@H](O)C[C@H]12 [Compound 1, loganin] |  |  |  | significant cytotoxic activity |  |  |  | IC50 [1]: 1.45 µg/mL (≈ 3.71 µM); IC50 [2]: 1.86 µg/mL (≈ 4.76 µM); IC50 ([3]; read-out: Dosage range IC50): 1 to 5 µg/mL (≈ 2.56 to 12.8 µM); IC50 ([3]; read-out: concentration/dose used in vitro MTT assay for IC50, range): 1 to 5 µg/mL (≈ 2.56 to 12.8 µM); IC50 ([4]; Caco-2, read-out: CaCo2 IC50): 1.28 µg/mL (≈ 3.28 µM); IC50 ([5]; MCF7, read-out: MCF-7 IC50): 4.85 µg/mL (≈ 12.4 µM); IC50 ([6]; COLO 320, read-out: COLO-320 IC50): 1 µg/mL (≈ 2.56 µM)
COC(=O)C1=COC(O[C@@H]2O[C@H](COC(=O)C=C(C)C)[C@@H](OC(C)=O)[C@H](OC(C)=O)[C@H]2OC(C)=O)C2C1CC(OC(C)=O)C2C (stereo partly drawn) [Compound 10, 2′,3′,4′,7-Tetra-O-acetyl-6′-O-3″,3″-dimethyl acryloylloganin] | 0.65 | 1.20 | 0.08 to 1.20 | significant enhancement of anticancer activity | 0.80 | 1.00 | 0.08 | 
C=CC(=O)OC[C@H]1O[C@@H](OC2OC=C(C(=O)OC)C3CC(OC(C)=O)C(C)C23)[C@H](OC(C)=O)[C@@H](OC(C)=O)[C@@H]1OC(C)=O (stereo partly drawn) [Compound 9, 2′,3′,4′,7-Tetra-O-acetyl-6′-O-acryloyl loganin] |  |  |  | totally abolished the activity |  |  |  | 
CCC(=O)OC[C@H]1O[C@@H](OC2OC=C(C(=O)OC)C3CC(OC(C)=O)C(C)C23)[C@H](OC(C)=O)[C@@H](OC(C)=O)[C@@H]1OC(C)=O (stereo partly drawn) [Compound 5, 2′,3′,4′,7-Tetra-O-acetyl-6′-O-propionylloganin] | 1.24 | 2.65 | 0.80 to 3.0 |  | 2.85 | 1.88 | 0.85 | concentration/dose used in vitro MTT assay for IC50, range ([3]; MCF-7, PA-1, WRL, COLO-320 and CaCo-2): 0.80 to 3.0 µg/mL
COC(=O)C1=COC(O[C@@H]2O[C@H](CO)[C@@H](OC(C)=O)[C@H](OC(C)=O)[C@H]2OC(C)=O)C2C1CC(OC(C)=O)C2C (stereo partly drawn) [Compound 4, 2′,3′,4′,7-tetra-O-acetyl loganin] |  |  |  | abolished cytotoxicity |  |  |  | 
